Reference: publication PMC9586930, “Molecular insights into the distinct signaling duration for the peptide-induced PTH1R activation” (Nature Communications, 2022)
Changes are numbered by the printed parent chain.

Experiments:
Format in all cases: cell-based
Settings in all cases: for ΔpEC50±SEM: relative to WT, n = 3 in triplicate; for ΔpEC50±SEM / Span±SEM: mean ± SEM; for Span±SEM: window between maximal response (Emax) and vehicle, n = 3
[1] = target: T1, WT PTH1R (Homo sapiens, UniProt Q03431); experiment: cAMP accumulation assay (GloSensor), wild-type PTH1R
T1 construct: a flag-tag was fused to the N terminal of full-length PTH1R (WT or mutant); expressed in transfected cells; host or cells: HEK293T
T1 sequence (Q03431 27-593): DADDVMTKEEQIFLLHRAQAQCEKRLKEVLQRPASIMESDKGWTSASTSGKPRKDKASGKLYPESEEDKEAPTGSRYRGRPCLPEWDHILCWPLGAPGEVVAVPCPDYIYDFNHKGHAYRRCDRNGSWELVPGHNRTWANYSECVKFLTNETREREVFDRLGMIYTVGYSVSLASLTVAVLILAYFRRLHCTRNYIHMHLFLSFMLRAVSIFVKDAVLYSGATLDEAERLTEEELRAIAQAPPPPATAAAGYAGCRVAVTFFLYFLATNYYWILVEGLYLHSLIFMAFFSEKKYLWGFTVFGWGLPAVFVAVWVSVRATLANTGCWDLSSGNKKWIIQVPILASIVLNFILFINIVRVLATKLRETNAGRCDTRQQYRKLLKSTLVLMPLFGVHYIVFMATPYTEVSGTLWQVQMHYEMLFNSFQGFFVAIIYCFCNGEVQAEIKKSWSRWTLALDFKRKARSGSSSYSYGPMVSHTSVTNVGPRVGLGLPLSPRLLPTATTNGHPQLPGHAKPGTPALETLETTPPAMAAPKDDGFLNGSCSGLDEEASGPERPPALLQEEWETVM
Procedure: (§1) Human embryonic kidney 293 T (HEK293T, ATCC: CRL-1573) cells were transfected with a plasmid mixture consisting of pcDNA3.1-flag-PTH1R (WT or mutants) and the cAMP biosensor GloSensor-22F (Promega) at a ratio of 2:1 (see Supplementary Table 7 for a list of primers used in this study). After 24 h, transfected cells were plated onto a 384-well plate, which was treated with cell adherent reagent (Applygen) in advance. After another 12 h, cells were treated with Hank’s balanced salt solution for starvation and then incubated in CO2-independent media containing 4% GloSensor cAMP Reagent (Promega) at a volume of 5 μl per well and incubated for 20 min at RT before measurements for baseline luminescence (Spark Multimode microplate reader, TECAN). Next, test ligands were added at different concentrations from 10^−6 to 10^−13 M before second measurement. Finally, data were normalized to 100% of the maximal PTH (1-34) response for WT PTH1R using a sigmoidal dose-response in GraphPad Prism.
(§2) Statistical analyses were performed on at least three individual datasets and analysed using GraphPad Prism software. Bars represent differences in the calculated agonist potency (pEC50) and maximum agonist response (Emax) for each mutant relative to the WT receptor. Data are mean± s.e.m. from at least three independent experiments, performed in triplicates. ns, not significant, ^nsP > 0.01; ^*P < 0.01; ^**P < 0.001; ^***P < 0.0001 (one-way analysis of variance (ANOVA) followed by Dunnett’s test, compared with the response of the WT). For dose-response experiments, data were normalized and analyzed using nonlinear curve fitting for the log (agonist) versus response (three parameters) curves.

[2] = target: T2, PTH1R I363A mutant (Homo sapiens, UniProt Q03431, I363A); experiment: cAMP accumulation assay (GloSensor), PTH1R I363A
T2 construct: a flag-tag was fused to the N terminal of full-length PTH1R (WT or mutant); expressed in transfected cells; host or cells: HEK293T
T2 sequence (Q03431 27-593 I363A): T1 sequence (Q03431 27-593) with I337A
Procedure: as §1, §2

[3] = target: T3, PTH1R L436A mutant (Homo sapiens, UniProt Q03431, L436A); experiment: cAMP accumulation assay (GloSensor), PTH1R L436A
T3 construct: a flag-tag was fused to the N terminal of full-length PTH1R (WT or mutant); expressed in transfected cells; host or cells: HEK293T
T3 sequence (Q03431 27-593 L436A): T1 sequence (Q03431 27-593) with L410A
Procedure: as §1, §2

Substance | span (from the WT) ([1]; PTH1R WT, replicate 1) | ΔpEC50 (from the WT) ([1]; PTH1R WT, replicate 1) | span (from the WT) ([1]; PTH1R WT, replicate 2) | ΔpEC50 (from the WT) ([1]; PTH1R WT, replicate 2) | span (from the WT) ([1]; PTH1R WT, replicate 3) | ΔpEC50 (from the WT) ([1]; PTH1R WT, replicate 3) | ΔpEC50±SEM [1] | ΔpEC50 (from the WT) ([1]; replicate 1) | ΔpEC50 (from the WT) ([1]; replicate 2) | ΔpEC50 (from the WT) ([1]; replicate 3) | Span±SEM [1] | span (from the WT) ([2]; PTH1R I3635.39A, replicate 1) | ΔpEC50 (from the WT) ([2]; PTH1R I3635.39A, replicate 1) | span (from the WT) ([2]; PTH1R I3635.39A, replicate 2) | ΔpEC50 (from the WT) ([2]; PTH1R I3635.39A, replicate 2) | span (from the WT) ([2]; PTH1R I3635.39A, replicate 3) | ΔpEC50±SEM [2] | ΔpEC50 (from the WT) ([2]; replicate 1) | ΔpEC50 (from the WT) ([2]; replicate 2) | ΔpEC50 (from the WT) ([2]; replicate 3) | also measured
H-AVAEIQLMHQRAKWIQDARRRAFLHKLIAEIHTAEI-OH [LA-PTH, long-acting PTH analog, modified PTH/PTHrP hybrid] | 106.8 | 0 | 118.8 | 0 | 116.4 | 0 | 0 | 0 | 0 | 0 | 114.00±3.67 | 94.78 | -0.24 | 139.7 | -0.23 | 119.7 | -0.05±0.19 | -0.24 | -0.23 | 0.32 | Span±SEM [2]: 118.06±12.99; span (from the WT) ([3]; PTH1R L4367.34A, replicate 1): 237.8; ΔpEC50 (from the WT) ([3]; PTH1R L4367.34A, replicate 1): 0.088; span (from the WT) ([3]; PTH1R L4367.34A, replicate 2): 171.3; ΔpEC50 (from the WT) ([3]; PTH1R L4367.34A, replicate 2): -0.137; span (from the WT) ([3]; PTH1R L4367.34A, replicate 3): 194.5; ΔpEC50 (from the WT) ([3]; PTH1R L4367.34A, replicate 3): 0.085; ΔpEC50±SEM [3]: 0.01±0.07; ΔpEC50 (from the WT) ([3]; replicate 1): 0.088; ΔpEC50 (from the WT) ([3]; replicate 2): -0.137; ΔpEC50 (from the WT) ([3]; replicate 3): 0.085; Span±SEM [3]: 201.20±19.49
H-AVSEHQLLHDKGKSIQDLRRRELLEKLL-{Aib}-KLHTA-NH2 [ABL, Abaloparatide, an analog of PTHrP, short-acting PTH1R agonist] | 115.9 | 0 | 122.2 | 0 | 127.3 | 0 | 0 | 0 | 0 | 0 | 121.80±3.30 | 145.9 | -0.54 | 170 | -0.46 | 139.9 | -0.57±0.08 | -0.54 | -0.46 | -0.722 | ΔpEC50 (from the WT) ([2]; PTH1R I3635.39A, replicate 3): -0.722; Span±SEM [2]: 151.93±9.20; span (from the WT) ([3]; PTH1R L4367.34A, replicate 1): 166.5; ΔpEC50 (from the WT) ([3]; PTH1R L4367.34A, replicate 1): -0.45; span (from the WT) ([3]; PTH1R L4367.34A, replicate 2): 265; ΔpEC50 (from the WT) ([3]; PTH1R L4367.34A, replicate 2): -0.73; span (from the WT) ([3]; PTH1R L4367.34A, replicate 3): 245.1; ΔpEC50 (from the WT) ([3]; PTH1R L4367.34A, replicate 3): -0.7; ΔpEC50±SEM [3]: -0.63±0.09; ΔpEC50 (from the WT) ([3]; replicate 1): -0.45; ΔpEC50 (from the WT) ([3]; replicate 2): -0.73; ΔpEC50 (from the WT) ([3]; replicate 3): -0.7; Span±SEM [3]: 225.53±30.07
H-SVSEIQLMHNLGKHLNSMERVEWLRKKLQDVHNF-OH [PTH, Teriparatide, human PTH 1-34, long-acting peptide agonist of PTH1R] | 125.1 | 0 | 136.6 | 0 | 114.9 | 0 | 0 | 0 | 0 | 0 | 125.53±6.27 | 93.29 | -0.207 | 156.2 | -0.352 | 155.7 | -0.28±0.04 | -0.207 | -0.352 | -0.276 | Emax ([1]; HEK293T cells, from curve fitting dose-response data): 103.1 luminescence counts per 500ms; ΔpEC50 (from the WT) ([2]; PTH1R I3635.39A, replicate 3): -0.276; Span±SEM [2]: 180.23±7.67; span (from the WT) ([3]; PTH1R L4367.34A, replicate 1): 270.9; ΔpEC50 (from the WT) ([3]; PTH1R L4367.34A, replicate 1): 0.137; span (from the WT) ([3]; PTH1R L4367.34A, replicate 2): 204.3; ΔpEC50 (from the WT) ([3]; PTH1R L4367.34A, replicate 2): 0.015; span (from the WT) ([3]; PTH1R L4367.34A, replicate 3): 186.9; ΔpEC50 (from the WT) ([3]; PTH1R L4367.34A, replicate 3): 0.016; ΔpEC50±SEM [3]: 0.06±0.04; ΔpEC50 (from the WT) ([3]; replicate 1): 0.137; ΔpEC50 (from the WT) ([3]; replicate 2): 0.015; ΔpEC50 (from the WT) ([3]; replicate 3): 0.016; Span±SEM [3]: 220.70±25.60
